Like-named read-outs stand apart in the source and are kept apart here.
Columns and labels:
[1] = target: T1, ERG isolated Ets domain (ERGu, 289-378) (Homo sapiens, UniProt P11308); assay: Fluorescence polarization DNA binding assay, uninhibited ERG; conditions: FP DNA binding, NA = no activity up to 2000 μM, >number = estimate from fit with lower bound
T1 construct: made in house
T1 sequence (P11308 289-378 isoform P11308-1): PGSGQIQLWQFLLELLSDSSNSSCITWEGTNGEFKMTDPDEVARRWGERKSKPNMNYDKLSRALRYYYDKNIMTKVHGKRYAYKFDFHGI
Description: (§1) The constructs of ERG which retain full auto-inhibition were previously delineated (17). Fluorescence polarization-based assays for DNA binding were then developed, which were used for screening. In addition to the auto-inhibited form of ERG, it was important to also have an assay using its Ets domain, i.e., the uninhibited form of the protein, to compare action of compounds. Compounds which are active against the auto-inhibited form of the protein but have little or no effect on the uninhibited form were sought, indicating their binding is mediated by the non-conserved auto-inhibitory modules rather than the highly conserved Ets domain. […] Fragment screening is an alternative approach that has gained a great deal of favor in the pharma industry recently that employs relatively small molecules (22). […] The auto-inhibited construct was screened first with a dose dependent screen of actives with ERGi using fluorescein- and Texas Red-DNA and then the positive hits were counter-screened with the ERG Ets domain, specifically a screen of actives with ERGu, the latter screen serving to remove compounds which bind to the conserved Ets domain or to DNA, which left 26 compounds which inhibit the auto-inhibited construct of ERG binding to DNA but not the uninhibited ERG (the Ets domain) binding to DNA. ERGi is the auto-inhibited construct of ERG (272-388) and ERGu is the uninhibited DNA binding domain construct of ERG (289-378). […] The IC50 of the validated hits was 0.6-7 mM. […] Importantly, chemical shift changes upon compound addition are observed in the ^15N-^1H HSQC NMR spectra of ERG for amino acids located in the auto-inhibitory modules of ERG, indicating they do interact with these regions of the protein. It is critical to also develop assays for other ETS family members to assess the specificity of action of the compounds identified in the screen, so auto-inhibited constructs were expressed and assays were developed for five other ETS family members and assays for additional members of the family were also developed.
(§2) Using a standard medicinal chemistry approach, further optimization of the fragment hits were pursued. The specificity of parent fragments and their optimized derivatives with 5 additional Ets proteins which are representatives of 5 additional sub-families, were evaluated, as shown in Table 2. […] NA in Table 2 represents no activity up to the 2000 μM maximum concentration. >number in Table 2 represents some activity at highest concentrations so data fit with a lower bound to obtain an estimate of IC50.

Ets1 = target: T2, Ets1 (Homo sapiens, UniProt P14921); assay: Fluorescence polarization DNA binding assay, auto-inhibited Ets-1; conditions: auto-inhibited construct; NA = no activity up to 2000 μM; >number = estimate from fit with lower bound
T2 sequence (P14921 1-441): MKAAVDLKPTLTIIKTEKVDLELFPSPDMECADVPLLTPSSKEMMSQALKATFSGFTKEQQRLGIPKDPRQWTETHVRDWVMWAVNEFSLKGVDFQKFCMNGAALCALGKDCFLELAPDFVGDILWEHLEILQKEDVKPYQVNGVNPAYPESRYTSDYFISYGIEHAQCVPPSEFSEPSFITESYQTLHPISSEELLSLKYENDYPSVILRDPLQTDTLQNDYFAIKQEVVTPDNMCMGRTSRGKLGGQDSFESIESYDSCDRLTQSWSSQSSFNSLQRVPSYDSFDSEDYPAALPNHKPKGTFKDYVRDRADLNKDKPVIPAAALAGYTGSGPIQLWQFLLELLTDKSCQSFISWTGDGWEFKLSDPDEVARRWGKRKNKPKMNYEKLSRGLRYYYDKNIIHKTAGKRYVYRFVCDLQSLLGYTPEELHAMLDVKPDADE
Description: as §1, §2

ETV6 (TEL) = target: T3, ETV6 (TEL) (Homo sapiens, UniProt P41212); assay: Fluorescence polarization DNA binding assay, auto-inhibited ETV6; conditions: auto-inhibited construct; NA = no activity up to 2000 μM; >number = estimate from fit with lower bound
T3 sequence (P41212 1-452): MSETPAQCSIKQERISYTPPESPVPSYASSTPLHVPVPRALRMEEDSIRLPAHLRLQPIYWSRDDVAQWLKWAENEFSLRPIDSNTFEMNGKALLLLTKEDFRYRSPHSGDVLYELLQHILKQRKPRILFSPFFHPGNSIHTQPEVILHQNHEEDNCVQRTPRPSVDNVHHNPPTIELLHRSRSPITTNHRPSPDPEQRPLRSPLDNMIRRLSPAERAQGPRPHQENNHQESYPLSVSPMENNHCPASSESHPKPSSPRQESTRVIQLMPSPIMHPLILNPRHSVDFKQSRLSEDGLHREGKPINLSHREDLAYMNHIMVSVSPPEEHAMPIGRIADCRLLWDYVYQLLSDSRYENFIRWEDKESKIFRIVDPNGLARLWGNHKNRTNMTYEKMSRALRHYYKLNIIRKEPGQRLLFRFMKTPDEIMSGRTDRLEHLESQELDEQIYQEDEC
Description: as §1, §2

Spi1 (PU.1) = Spi1 (PU.1) (Homo sapiens, UniProt P17947); assay: Fluorescence polarization DNA binding assay, auto-inhibited PU.1; conditions: auto-inhibited construct; NA = no activity up to 2000 μM; >number = estimate from fit with lower bound
Description: as §1, §2

ELF3 = target: T4, ELF3 (Homo sapiens, UniProt P78545); assay: Fluorescence polarization DNA binding assay, auto-inhibited ELF3; conditions: auto-inhibited construct; NA = no activity up to 2000 μM; >number = estimate from fit with lower bound
T4 sequence (P78545 1-371): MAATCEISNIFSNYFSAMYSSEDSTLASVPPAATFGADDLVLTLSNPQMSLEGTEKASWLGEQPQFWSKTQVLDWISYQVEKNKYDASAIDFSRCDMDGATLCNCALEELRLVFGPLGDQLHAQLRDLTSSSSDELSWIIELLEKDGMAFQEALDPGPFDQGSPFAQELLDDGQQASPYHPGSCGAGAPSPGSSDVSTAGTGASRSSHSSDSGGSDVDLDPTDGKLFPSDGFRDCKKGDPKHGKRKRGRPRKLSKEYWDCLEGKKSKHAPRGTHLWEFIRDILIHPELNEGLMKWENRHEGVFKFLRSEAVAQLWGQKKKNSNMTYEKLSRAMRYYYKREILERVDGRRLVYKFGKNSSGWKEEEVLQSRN
Description: as §1, §2

ELK1 = target: T5, ELK1 (Homo sapiens, UniProt P19419); assay: Fluorescence polarization DNA binding assay, auto-inhibited ELK1; conditions: auto-inhibited construct; NA = no activity up to 2000 μM; >number = estimate from fit with lower bound
T5 sequence (P19419 1-428): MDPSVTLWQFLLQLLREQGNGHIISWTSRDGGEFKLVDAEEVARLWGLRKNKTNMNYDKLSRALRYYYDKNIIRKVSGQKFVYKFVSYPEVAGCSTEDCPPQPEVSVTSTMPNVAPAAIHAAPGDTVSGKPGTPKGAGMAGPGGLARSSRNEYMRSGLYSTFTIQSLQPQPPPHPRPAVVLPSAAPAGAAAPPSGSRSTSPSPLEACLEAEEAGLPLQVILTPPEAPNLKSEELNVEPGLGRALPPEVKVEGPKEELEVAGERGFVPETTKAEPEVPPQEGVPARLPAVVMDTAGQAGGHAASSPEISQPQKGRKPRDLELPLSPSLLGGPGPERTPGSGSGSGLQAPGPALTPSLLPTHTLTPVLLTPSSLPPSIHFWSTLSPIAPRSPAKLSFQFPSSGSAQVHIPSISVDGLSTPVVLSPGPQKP
Description: as §1, §2

[2] = target: T6, ERG auto-inhibited construct (ERGi, 272-388) (Homo sapiens, UniProt P11308); assay: ERGi-DNA fluorescence polarization assay; type: binding
T6 construct: made in house
T6 sequence (P11308 272-388 isoform P11308-1): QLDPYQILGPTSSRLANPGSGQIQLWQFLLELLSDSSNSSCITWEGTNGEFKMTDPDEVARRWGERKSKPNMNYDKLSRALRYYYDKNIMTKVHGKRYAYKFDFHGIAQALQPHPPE
Description: as §1, §2

DNA = conditions: ITC, ERG construct binding to DNA; ±SE in cell beside; cited from earlier work
[3] = FP DNA binding, maximum concentration 2000 μM, read-out: IC50 ERG Auto-inhibited construct
[4] = optimized fragment analogs, values in text, read-out: IC50

Molecule	IC50 [1] [µM]	IC50 (Ets1) [µM]	IC50 (ETV6 (TEL)) [µM]	IC50 (Spi1 (PU.1)) [µM]	IC50 (ELF3) [µM]	IC50 (ELK1) [µM]	Kd (DNA) [µM]	further results
COc1cccc2cc(C(C)=O)oc12 [Compound 9F1]	> 2000	> 2000	> 2000	> 2000	> 2000	> 2000		
Cc1ccc(OCC(=O)Nc2cccc(O)c2)cc1 [Compound 6H6]	> 2000	> 4000	> 2000	> 2000	> 2000	> 4500		IC50 [2, 3]: 588 µM
CCNc1cc(-c2nc3ccccc3o2)ccc1C [KK-23-07]	> 2000	> 2600	> 4400	> 3300	1740	> 2500		IC50 [2, 3]: 837 µM
COc1cc(OCC(=O)Nc2cccc(O)c2)ccc1C [KK-22-93]	> 3000	> 3600	> 2000	> 2000	> 2000	> 4750		IC50 [2, 4]: 88 µM
Cc1ccc(-c2nc3ccccc3o2)cc1C [KK-19-109]								IC50 [2, 4]: 63 µM
Nc1ccc(Cl)c(-c2nc3ccccc3o2)c1 [Compound 9B5]	> 2000	> 2000	> 2500	> 4100	1830	> 2100		IC50 [2, 3]: 965 µM
272-378: ERG truncation construct, residues 272-378 (protein, UniProt P11308 272-378, looked up, fragment) AAQPSPSTVPKTEDQRPQLDPYQILGPTSSRLANPGSGQIQLWQFLLELLSDSSNSSCITWEGTNGEFKMTDPDEVARRWGERKSKPNMNYDKLSRALRYYYDKNIM							0.033	
289-412: ERG truncation construct, residues 289-412 (protein, UniProt P11308 289-412, looked up, fragment) QLDPYQILGPTSSRLANPGSGQIQLWQFLLELLSDSSNSSCITWEGTNGEFKMTDPDEVARRWGERKSKPNMNYDKLSRALRYYYDKNIMTKVHGKRYAYKFDFHGIAQALQPHPPESSLYKYP							0.051	
289-378: the uninhibited DNA binding domain construct of ERG (289-378) (protein, UniProt P11308 289-378, looked up, fragment) QLDPYQILGPTSSRLANPGSGQIQLWQFLLELLSDSSNSSCITWEGTNGEFKMTDPDEVARRWGERKSKPNMNYDKLSRALRYYYDKNIM							0.037	
289-388: ERG truncation construct, residues 289-388 (protein, UniProt P11308 289-388, looked up, fragment) QLDPYQILGPTSSRLANPGSGQIQLWQFLLELLSDSSNSSCITWEGTNGEFKMTDPDEVARRWGERKSKPNMNYDKLSRALRYYYDKNIMTKVHGKRYAY							0.041	
272-388: the auto-inhibited construct of ERG (272-388) (protein, UniProt P11308 272-388, looked up, fragment) AAQPSPSTVPKTEDQRPQLDPYQILGPTSSRLANPGSGQIQLWQFLLELLSDSSNSSCITWEGTNGEFKMTDPDEVARRWGERKSKPNMNYDKLSRALRYYYDKNIMTKVHGKRYAY							0.176	
210-462: ERG truncation construct, residues 210-462 (protein, UniProt P11308 210-462, looked up, fragment) KALQNSPRLMHARNTGGAAFIFPNTSVYPEATQRITTRPDLPYEPPRRSAWTGHGHPTPQSKAAQPSPSTVPKTEDQRPQLDPYQILGPTSSRLANPGSGQIQLWQFLLELLSDSSNSSCITWEGTNGEFKMTDPDEVARRWGERKSKPNMNYDKLSRALRYYYDKNIMTKVHGKRYAYKFDFHGIAQALQPHPPESSLYKYPSDLPYMGSYHAHPQKMNFVAPHPPALPVTSSSFFAAPNPYWNSPTGGIYP							0.104	
1-462: ERG construct, residues 1-462 (protein, UniProt P11308 1-462, looked up, fragment) MASTIKEALSVVSEDQSLFECAYGTPHLAKTEMTASSSSDYGQTSKMSPRVPQQDWLSQPPARVTIKMECNPSQVNGSRNSPDECSVAKGGKMVGSPDTVGMNYGSYMEEKHMPPPNMTTNERRVIVPADPTLWSTDHVRQWLEWAVKEYGLPDVNILLFQNIDGKELCKMTKDDFQRLTPSYNADILLSHLHYLRETPLPHLTSDDVDKALQNSPRLMHARNTGGAAFIFPNTSVYPEATQRITTRPDLPYEPPRRSAWTGHGHPTPQSKAAQPSPSTVPKTEDQRPQLDPYQILGPTSSRLANPGSGQIQLWQFLLELLSDSSNSSCITWEGTNGEFKMTDPDEVARRWGERKSKPNMNYDKLSRALRYYYDKNIMTKVHGKRYAYKFDFHGIAQALQPHPPESSLYKYPSDLPYMGSYHAHPQKMNFVAPHPPALPVTSSSFFAAPNPYWNSPTGGIYP							0.121	
272-412: ERG truncation construct, residues 272-412 (protein, UniProt P11308 272-412, looked up, fragment) AAQPSPSTVPKTEDQRPQLDPYQILGPTSSRLANPGSGQIQLWQFLLELLSDSSNSSCITWEGTNGEFKMTDPDEVARRWGERKSKPNMNYDKLSRALRYYYDKNIMTKVHGKRYAYKFDFHGIAQALQPHPPESSLYKYP							0.101	
